In patent US8148391B2 (Cephalon, Inc., priority 2006, dated 2012) one finds IC50 data, which are given here for 23 compounds.

For assay [1], the target named is T1, c-Met (cytoplasmic domain) (Homo sapiens, UniProt P08581).
T1 construct: 10 ng/mL c-Met (cytoplasmic domain, Invitrogen Corporation #PV3143); purchased Invitrogen Corporation PV3143
Description: c-Met Kinase Assay (same methods as for ALK, with modifications). As to conditions: c-Met kinase inhibition, 1 μM ATP (Km level); read-out: cMet Activity. The class given is biochemical. An outline of the steps: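 Europium-labeled PT66 antibody (Eu-N1) detects substrate phosphorylation on wells coated with phospholipase C-γ at 10 μg/mL. The kinase, the cytoplasmic domain of c-Met at 10 ng/mL, starts the reaction, which proceeds 15 minutes at 37° C.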

Assay [2] deals with T2, baculovirus-expressed ALK (Homo sapiens, UniProt Q9UM73).
T2 construct: host or cells: baculovirus expression system
Kind of assay: ALK Kinase Assay (ELISA-type, time-resolved fluorescence). The class given is biochemical. As to conditions: ALK kinase inhibition, 1 μM ATP (Km level); read-out: ALK Activity. An outline of the steps: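 Plates coated with phospholipase C-γ substrate (10 μg/mL in TBS); reaction started with 30 ng/ml ALK and run 15 min at 37° C. Phosphorylated substrate detected with Eu-N1-labeled PT66 antibody. IC50 from sigmoidal variable-slope fit of percent inhibition vs log concentration.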

T1 sequence (P08581 956-1390 limits assumed): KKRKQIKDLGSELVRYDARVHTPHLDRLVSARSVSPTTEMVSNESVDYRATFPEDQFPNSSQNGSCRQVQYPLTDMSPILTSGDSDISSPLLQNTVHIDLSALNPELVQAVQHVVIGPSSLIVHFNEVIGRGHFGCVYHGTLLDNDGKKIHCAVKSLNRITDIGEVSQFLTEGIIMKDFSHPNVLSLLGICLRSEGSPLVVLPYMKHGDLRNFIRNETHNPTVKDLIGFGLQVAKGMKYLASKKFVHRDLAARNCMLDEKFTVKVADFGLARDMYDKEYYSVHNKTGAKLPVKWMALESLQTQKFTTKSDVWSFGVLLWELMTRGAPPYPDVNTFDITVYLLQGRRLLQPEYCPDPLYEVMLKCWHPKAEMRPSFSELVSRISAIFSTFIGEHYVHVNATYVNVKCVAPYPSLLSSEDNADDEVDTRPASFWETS
T2 sequence (Q9UM73 19-1620): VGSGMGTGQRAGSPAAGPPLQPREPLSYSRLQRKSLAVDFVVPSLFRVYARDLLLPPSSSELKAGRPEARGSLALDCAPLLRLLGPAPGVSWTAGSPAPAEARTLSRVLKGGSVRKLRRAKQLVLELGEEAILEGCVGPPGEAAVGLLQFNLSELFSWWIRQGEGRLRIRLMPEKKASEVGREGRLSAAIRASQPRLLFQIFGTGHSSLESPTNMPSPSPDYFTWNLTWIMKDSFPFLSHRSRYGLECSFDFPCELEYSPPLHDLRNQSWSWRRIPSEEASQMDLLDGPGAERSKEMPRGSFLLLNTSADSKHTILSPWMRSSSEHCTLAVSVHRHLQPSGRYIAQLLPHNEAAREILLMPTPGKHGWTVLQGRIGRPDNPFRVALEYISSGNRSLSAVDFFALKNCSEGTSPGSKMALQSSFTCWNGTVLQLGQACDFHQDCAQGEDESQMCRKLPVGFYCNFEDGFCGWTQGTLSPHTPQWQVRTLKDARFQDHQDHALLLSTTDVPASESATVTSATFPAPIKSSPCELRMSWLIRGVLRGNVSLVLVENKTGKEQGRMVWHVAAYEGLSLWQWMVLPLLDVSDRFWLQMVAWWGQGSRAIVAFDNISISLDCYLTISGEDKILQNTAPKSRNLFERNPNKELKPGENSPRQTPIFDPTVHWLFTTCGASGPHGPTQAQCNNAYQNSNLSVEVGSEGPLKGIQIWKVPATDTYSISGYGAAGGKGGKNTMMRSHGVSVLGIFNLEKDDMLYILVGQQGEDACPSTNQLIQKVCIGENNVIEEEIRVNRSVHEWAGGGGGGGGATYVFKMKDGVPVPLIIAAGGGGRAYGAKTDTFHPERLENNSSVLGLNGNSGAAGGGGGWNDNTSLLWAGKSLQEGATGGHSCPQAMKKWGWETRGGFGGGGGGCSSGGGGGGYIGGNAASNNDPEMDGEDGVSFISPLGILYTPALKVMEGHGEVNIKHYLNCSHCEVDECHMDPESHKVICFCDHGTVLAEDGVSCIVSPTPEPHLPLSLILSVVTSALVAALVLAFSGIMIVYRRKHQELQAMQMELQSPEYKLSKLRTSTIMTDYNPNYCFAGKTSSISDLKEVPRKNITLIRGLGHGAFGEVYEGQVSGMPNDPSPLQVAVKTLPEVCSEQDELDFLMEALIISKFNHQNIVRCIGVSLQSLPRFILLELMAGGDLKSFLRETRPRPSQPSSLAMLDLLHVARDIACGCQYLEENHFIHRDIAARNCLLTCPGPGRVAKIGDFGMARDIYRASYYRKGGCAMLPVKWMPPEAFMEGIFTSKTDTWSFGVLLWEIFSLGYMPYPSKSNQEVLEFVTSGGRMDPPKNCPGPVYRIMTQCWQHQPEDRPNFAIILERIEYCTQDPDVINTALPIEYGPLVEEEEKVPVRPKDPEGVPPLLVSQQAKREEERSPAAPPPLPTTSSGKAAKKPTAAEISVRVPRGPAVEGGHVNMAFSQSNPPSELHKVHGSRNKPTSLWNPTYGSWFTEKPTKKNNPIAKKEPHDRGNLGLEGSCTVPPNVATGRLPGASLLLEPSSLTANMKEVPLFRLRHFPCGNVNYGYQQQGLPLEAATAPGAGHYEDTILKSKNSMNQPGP

On to `CCN1CCc2ccc(Nc3ncc(Cl)c(Nc4ccccc4NS(C)(=O)=O)n3)c(OC)c2CC1` [Example 233, N-{2-[5-Chloro-2-(3-ethyl-6-methoxy-2,3,4,5-tetrahydro-1H-benzo[d]azepin-7-ylamino)-pyrimidin-4-ylamino]-phenyl}-methanesulfonamide], for which the IC50 in assay [1] is over 10000 nM; in assay [2], under 100 nM.
Take `CCN1CCc2ccc(Nc3ncc(Cl)c(Nc4ccccc4C(=O)NC)n3)c(OC)c2CC1` [Example 234, 2-[5-Chloro-2-(3-ethyl-6-methoxy-2,3,4,5-tetrahydro-1H-benzo[d]azepin-7-ylamino)-pyrimidin-4-ylamino]-N-methyl-benzamide]: the IC50 in assay [1] was over 10000 nM; in assay [2], under 100 nM.
On to `CCN1CCc2ccc(Nc3ncc(Cl)c(N[C@@H]4c5ccccc5C[C@@H]4O)n3)cc2CC1` [Example 235, (1R,2S)-1-[5-Chloro-2-(3-ethyl-2,3,4,5-tetrahydro-1H-benzo[d]azepin-7-ylamino)-pyrimidin-4-ylamino]-indan-2-ol], for which the IC50 was 1000 to 10000 nM in assay [1] and under 100 nM in assay [2].
With `CNC(=O)c1ccccc1Nc1nc(Nc2cccc3c2CN(C(C)=O)CCN3)ncc1Cl` [Example 236, 2-[2-(4-Acetyl-2,3,4,5-tetrahydro-1H-benzo[e][1,4]diazepin-6-ylamino)-5-chloro-pyrimidin-4-ylamino]-N-methyl-benzamide], the IC50 in assay [1] lay in the range of 1000 to 10000 nM; in assay [2], 100 to 1000 nM.
`CNC(=O)c1ccccc1Nc1nc(Nc2cc3c(cc2OC)CCN(CCOC)CC3)ncc1Cl` [Example 241, 2-{5-Chloro-2-[8-methoxy-3-(2-methoxy-ethyl)-2,3,4,5-tetrahydro-1H-benzo[d]azepin-7-ylamino]-pyrimidin-4-ylamino}-N-methyl-benzamide]: the IC50 is 100 to 1000 nM in assay [1] and under 100 nM in assay [2].
For `COCCN1CCc2cc(Nc3ncc(Cl)c(Nc4ccccc4NS(C)(=O)=O)n3)c(OC)cc2CC1` [Example 242, N-(2-{5-Chloro-2-[8-methoxy-3-(2-methoxy-ethyl)-2,3,4,5-tetrahydro-1H-benzo[d]azepin-7-ylamino]-pyrimidin-4-ylamino}-phenyl)-methanesulfonamide], the IC50 in assay [1] was 1000 to 10000 nM; in assay [2], under 100 nM.
The matching figures for `COCCN1CCc2cc(Nc3ncc(Cl)c(Nc4cc(Cl)ccc4OC)n3)c(OC)cc2CC1` [Example 243, 5-Chloro-N*4*-(5-chloro-2-methoxy-phenyl)-N*2*-[8-methoxy-3-(2-methoxy-ethyl)-2,3,4,5-tetrahydro-1H-benzo[d]azepin-7-yl]-pyrimidine-2,4-diamine]: over 10000 nM and under 100 nM.
The matching figures for `COCCN1CCc2ccc(OC)c(Nc3ncc(Cl)c(N[C@@H]4CCCC[C@H]4NS(C)(=O)=O)n3)c2CC1` [Example 244, N-((1R,2R)-2-{5-Chloro-2-[7-methoxy-3-(2-methoxy-ethyl)-2,3,4,5-tetrahydro-1H-benzo[d]azepin-6-ylamino]-pyrimidin-4-ylamino}-cyclohexyl)-methanesulfonamide]: over 10000 nM and 1000 to 10000 nM.
Taken in the same sequence, the figures for `COCCN1CCc2ccc(OC)c(Nc3ncc(Cl)c(Nc4ccc(N5CCOCC5)cc4OC)n3)c2CC1` [Example 246, 5-Chloro-N(2)-[7-methoxy-3-(2-methoxy-ethyl)-2,3,4,5-tetrahydro-1H-benzo[d]azepin-6-yl]-N(4)-(2-methoxy-4-morpholin-4-yl-phenyl)-pyrimidine-2,4-diamine] were over 10000 nM and 1000 to 10000 nM.
Consider `COc1cc2c(cc1Nc1ncc(Cl)c(N[C@@H]3CCCC[C@H]3NS(C)(=O)=O)n1)CCN(C(=O)C(F)(F)F)CC2` [Example 247, N-((1R,2R)-2-{5-Chloro-2-[8-methoxy-3-(2,2,2-trifluoro-acetyl)-2,3,4,5-tetrahydro-1H-benzo[d]azepin-7-ylamino]-pyrimidin-4-ylamino}-cyclohexyl)-methanesulfonamide], for which the IC50 in assay [1] was over 10000 nM; in assay [2], under 100 nM.
With `COc1cc2c(cc1Nc1ncc(Cl)c(N[C@@H]3CCCC[C@H]3NS(C)(=O)=O)n1)CCN(CC(F)(F)F)CC2` [Example 248, N-((1R,2R)-2-{5-Chloro-2-[8-methoxy-3-(2,2,2-trifluoro-ethyl)-2,3,4,5-tetrahydro-1H-benzo[d]azepin-7-ylamino]-pyrimidin-4-ylamino}-cyclohexyl)-methanesulfonamide], the figures for the IC50 in assay [1] and in assay [2] were over 10000 nM and under 100 nM, respectively.
The matching figures for `COc1cc2c(cc1Nc1ncc(Cl)c(Nc3ccc(N4CCOCC4)cc3OC)n1)CCN(CC(F)(F)F)CC2` [Example 249, 5-Chloro-N*4*-(2-methoxy-4-morpholin-4-yl-phenyl)-N*2*-[8-methoxy-3-(2,2,2-trifluoro-ethyl)-2,3,4,5-tetrahydro-1H-benzo[d]azepin-7-yl]-pyrimidine-2,4-diamine]: over 10000 nM and under 100 nM.
The matching figures for `CCN1CCc2cc(Nc3ncc(Cl)c(N[C@@H]4CCCC[C@H]4NS(C)(=O)=O)n3)c(OC)cc2CC1=O` [Example 251, N-{(1R,2R)-2-[5-Chloro-2-(3-ethyl-8-methoxy-2-oxo-2,3,4,5-tetrahydro-1H-benzo[d]azepin-7-ylamino)-pyrimidin-4-ylamino]-cyclohexyl}-methanesulfonamide]: over 10000 nM and under 100 nM.
Taken in the same sequence, the figures for `CCN1CCc2cc(Nc3ncc(Cl)c(NC4C5C=CC(C5)C4C(N)=O)n3)c(OC)cc2CC1=O` (stereo not drawn) [Example 252, (2-exo,3-exo)-3-[5-Chloro-2-(3-ethyl-8-methoxy-2-oxo-2,3,4,5-tetrahydro-1H-benzo[d]azepin-7-ylamino)-pyrimidin-4-ylamino]-bicyclo[2.2.1]hept-5-ene-2-carboxylic acid amide] were over 10000 nM and under 100 nM.
On to `CCN1CCc2cc(Nc3ncc(Cl)c(Nc4ccccc4C(=O)NC)n3)c(OC)cc2CC1=O` [Example 253, 2-[5-Chloro-2-(3-ethyl-8-methoxy-2-oxo-2,3,4,5-tetrahydro-1H-benzo[d]azepin-7-ylamino)-pyrimidin-4-ylamino]-N-methyl-benzamide], for which the IC50 was 1000 to 10000 nM in assay [1] and under 100 nM in assay [2].
Taken in the same sequence, the figures for `CCN1CCc2cc(Nc3ncc(Cl)c(Nc4ccc(N5CCOCC5)cc4OC)n3)c(OC)cc2CC1=O` [Example 254, 7-[5-Chloro-4-(2-methoxy-4-morpholin-4-yl-phenylamino)-pyrimidin-2-ylamino]-3-ethyl-8-methoxy-1,3,4,5-tetrahydro-benzo[d]azepin-2-one] were over 10000 nM and under 100 nM.
Taken in the same sequence, the figures for `CCNC(=O)c1ccccc1Nc1nc(Nc2cc3c(cc2OC)CC(=O)N(CC)CC3)ncc1Cl` [Example 255, 2-[5-Chloro-2-(3-ethyl-8-methoxy-2-oxo-2,3,4,5-tetrahydro-1H-benzo[d]azepin-7-ylamino)-pyrimidin-4-ylamino]-N-ethyl-benzamide] were over 10000 nM and under 100 nM.
`COc1cc2c(cc1Nc1ncc(Cl)c(N[C@@H]3CCCC[C@H]3NS(C)(=O)=O)n1)CCN(CCNC(C)=O)CC2` [Example 256, N-(2-{7-[5-Chloro-4-((1R,2R)-2-methanesulfonylamino-cyclohexylamino)-pyrimidin-2-ylamino]-8-methoxy-1,2,4,5-tetrahydro-benzo[d]azepin-3-yl}-ethyl)-acetamide]: the IC50 in assay [1] is over 10000 nM; in assay [2] it was under 100 nM.
The matching figures for `COc1cc2c(cc1Nc1ncc(Cl)c(Nc3ccc(N4CCOCC4)cc3OC)n1)CCN(CCNC(C)=O)CC2` [Example 257, N-(2-{7-[5-Chloro-4-(2-methoxy-4-morpholin-4-yl-phenylamino)-pyrimidin-2-ylamino]-8-methoxy-1,2,4,5-tetrahydro-benzo[d]azepin-3-yl}-ethyl)-acetamide]: over 10000 nM and under 100 nM.
The matching figures for `COc1cc2c(cc1Nc1ncc(Cl)c(N[C@@H]3CCCC[C@H]3NS(C)(=O)=O)n1)CCN(CC(=O)N(C)C)CC2` [Example 258, 2-{7-[5-Chloro-4-((1R,2R)-2-methanesulfonylamino-cyclohexylamino)-pyrimidin-2-ylamino]-8-methoxy-1,2,4,5-tetrahydro-benzo[d]azepin-3-yl}-N,N-dimethyl-acetamide]: over 10000 nM and under 100 nM.
The matching figures for `CNC(=O)c1ccccc1Nc1nc(Nc2cc3c(cc2OC)CCN(CC(=O)N(C)C)CC3)ncc1Cl` [Example 259, 2-[5-Chloro-2-(3-dimethylcarbamoylmethyl-8-methoxy-2,3,4,5-tetrahydro-1H-benzo[d]azepin-7-ylamino)-pyrimidin-4-ylamino]-N-methyl-benzamide]: 100 to 1000 nM and under 100 nM.
In the case of `COc1cc2c(cc1Nc1ncc(Cl)c(NC3C4C=CC(C4)C3C(N)=O)n1)CCN(CC(=O)N(C)C)CC2` (stereo not drawn) [Example 260, (2-exo,3-exo)-3-[5-Chloro-2-(3-dimethylcarbamoylmethyl-8-methoxy-2,3,4,5-tetrahydro-1H-benzo[d]azepin-7-ylamino)-pyrimidin-4-ylamino]-bicyclo[2.2.1]hept-5-ene-2-carboxylic acid amide], the IC50 was over 10000 nM in assay [1] and under 100 nM in assay [2].
For `CCNC(=O)c1ccccc1Nc1nc(Nc2cc3c(cc2OC)CCN(CC(=O)N(C)C)CC3)ncc1Cl` [Example 262, 2-[5-Chloro-2-(3-dimethylcarbamoylmethyl-8-methoxy-2,3,4,5-tetrahydro-1H-benzo[d]azepin-7-ylamino)-pyrimidin-4-ylamino]-N-ethyl-benzamide], the IC50 in assay [1] was 1000 to 10000 nM; in assay [2] it was under 100 nM.
